“And” between values parts separate entries of the source, which are not always exact repeats. Equal values may be shown once.
How the values were obtained:
Test in all cases: biochemical
Type in all cases: binding
SfurOBP1 = SfurOBP1 (Sogatella furcifera, UniProt V5T8N5); conditions: OBP1, three replicate columns
Method: (§1) Thirty-six rice odorants ([He et al., 2014]; [Wang et al., 2017]) and 1-N-phenyl-naphthylamine (1-NPN) were purchased from Sigma-Aldrich (St Louis, MO, USA). These odorants and 1-NPN were dissolved in high-performance liquid chromatography (HPLC) purify grade methanol for 1.0 mM as work solution.
(§2) Fluorescence competitive binding assays were performed on Tecan Spark 10M (Tecan Group Ltd., Männedorf, Switzerland) with the F96 Black ELIAS Plate (Sangon) ([Khuhro et al., 2017]; [Liu et al., 2017]). The solutions were excited at 337 nm and emission spectra were recorded between 390 and 490 nm. First, to test the binding constants of 1-NPN to the SfurOBPs, a 2.0 µM solution of protein in 50 mM Tris-HCl (pH = 7.4) was titrated with 1 mM 1-NPN to achieve virous concentrations. Next, the competitive binding of each odorant was measured using the 1-NPN as fluorescent reporter and odorant as competitor. The concentrations of protein and 1-NPN were both 2.0 µM, the odorant added after protein and 1-NPN added into the well of ELIAS Plate for 2 min. The final concentrations of each competitor were 2, 4, 6, 8, 10, 12, 14, 16, 18 and 20 µM. After 2 min of odorant added, the fluorescence intensity was measured and recorded. The volume of mixed solution in each well was maintained at 250 µL. Each interaction was performed in triplicates.
(§3) GraphPad Prism 7.0 software (GraphPad Software, Inc., La Jolla, CA, USA) was used to calculated and generated the binding constants (K1−NPN) of 1-NPN to SfurOBPs and relative Scatchard plots ([Ban et al., 2003]; [Li et al., 2016]). Dissociation constant (Ki) of each odorant to SfurOBP was computed from the corresponding IC50 value (the half maximal inhibitory concentration), using the following equation: Ki=[IC50]/(1 + [1-NPN]/K1−NPN), where [1-NPN] is the free concentration of 1-NPN and K1−NPN is the dissociation constant of the complex protein/1-NPN.

SfurOBP3 = SfurOBP3 (Sogatella furcifera, UniProt V5T818); conditions: OBP3, three replicate columns
Sequence of SfurOBP3 (V5T818 entry or part of it): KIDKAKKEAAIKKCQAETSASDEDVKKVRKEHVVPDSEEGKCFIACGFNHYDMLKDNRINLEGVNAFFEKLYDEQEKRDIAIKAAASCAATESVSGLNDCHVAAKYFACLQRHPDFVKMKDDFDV
Method: as §1, §2, §3

SfurOBP2 = SfurOBP2 (Sogatella furcifera, UniProt V5T759)
Sequence of SfurOBP2 (V5T759 entry or part of it): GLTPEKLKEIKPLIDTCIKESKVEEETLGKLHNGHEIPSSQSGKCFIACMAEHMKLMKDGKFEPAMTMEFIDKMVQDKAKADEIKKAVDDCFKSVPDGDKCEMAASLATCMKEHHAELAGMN
Method: as §1, §2, §3

SfurOBP11 = SfurOBP11 (Sogatella furcifera, UniProt V5T6E3)
Sequence of SfurOBP11 (V5T6E3 entry or part of it): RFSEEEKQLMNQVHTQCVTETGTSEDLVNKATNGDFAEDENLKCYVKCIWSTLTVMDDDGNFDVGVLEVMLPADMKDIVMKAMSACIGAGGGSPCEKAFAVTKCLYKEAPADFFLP
Method: as §1, §2, §3

Sequence of SfurOBP1 (V5T8N5 entry or part of it): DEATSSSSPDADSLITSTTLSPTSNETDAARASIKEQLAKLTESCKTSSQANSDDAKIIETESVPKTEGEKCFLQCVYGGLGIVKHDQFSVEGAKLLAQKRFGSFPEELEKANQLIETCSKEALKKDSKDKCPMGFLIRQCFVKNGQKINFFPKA

Q: Which results are given for `CCCCCCCCCCCCCCCC(=O)OC` [MH(methyl hexadecanoate)]?
A: Fluorescence competitive binding assay, fluorescence intensity (SfurOBP1; ligand concentration 2 (μM)): 12147 and 12451 and 12785; Fluorescence competitive binding assay, fluorescence intensity (SfurOBP1; ligand concentration 4 (μM)): 16267 and 16004 and 15123; Fluorescence competitive binding assay, fluorescence intensity (SfurOBP1; ligand concentration 6 (μM)): 22521 and 20565 and 17849; Fluorescence competitive binding assay, fluorescence intensity (SfurOBP1; ligand concentration 8 (μM)): 45300 and 22408 and 22243; Fluorescence competitive binding assay, fluorescence intensity (SfurOBP1; ligand concentration 10 (μM)): 28286 and 29968 and 28368; Fluorescence competitive binding assay, fluorescence intensity (SfurOBP1; ligand concentration 12 (μM)): 32121 and 35150 and 30012; Fluorescence competitive binding assay, fluorescence intensity (SfurOBP1; ligand concentration 14 (μM)): 38613 and 36070 and 36799; Fluorescence competitive binding assay, fluorescence intensity (SfurOBP1; ligand concentration 16 (μM)): 34740 and 38687 and 36378; Fluorescence competitive binding assay, fluorescence intensity (SfurOBP1; ligand concentration 18 (μM)): 40518 and 49298 and 40325; Fluorescence competitive binding assay, fluorescence intensity (SfurOBP1; ligand concentration 20 (μM)): 47871 and 41141 and 44944; Fluorescence competitive binding assay, fluorescence intensity (SfurOBP3; ligand concentration 2): 79169 and 74941 and 94761; Fluorescence competitive binding assay, fluorescence intensity (SfurOBP3; ligand concentration 4): 75066 and 75962 and 116353; Fluorescence competitive binding assay, fluorescence intensity (SfurOBP3; ligand concentration 6): 80726 and 113361 and 131059; Fluorescence competitive binding assay, fluorescence intensity (SfurOBP3; ligand concentration 8): 127533 and 115294 and 124955; Fluorescence competitive binding assay, fluorescence intensity (SfurOBP3; ligand concentration 10): 151439 and 140422 and 180514; Fluorescence competitive binding assay, fluorescence intensity (SfurOBP3; ligand concentration 12): 128094 and 97542 and 122147; Fluorescence competitive binding assay, fluorescence intensity (SfurOBP3; ligand concentration 14): 143468 and 130975 and 143763; Fluorescence competitive binding assay, fluorescence intensity (SfurOBP3; ligand concentration 16): 147668 and 180253 and 155136; Fluorescence competitive binding assay, fluorescence intensity (SfurOBP3; ligand concentration 18): 151347 and 96227 and 180613; Fluorescence competitive binding assay, fluorescence intensity (SfurOBP3; ligand concentration 20): 179130 and 144685 and 179646; Fluorescence competitive binding assay, OBP2 (raw fluorescence reading) (SfurOBP2; ligand concentration 2 (unit not given), replicate column 1 of 3): 36028; Fluorescence competitive binding assay, OBP2 (raw fluorescence reading) (SfurOBP2; ligand concentration 2 (unit not given), replicate column 2 of 3): 29538; Fluorescence competitive binding assay, OBP2 (raw fluorescence reading) (SfurOBP2; ligand concentration 2 (unit not given), replicate column 3 of 3): 32173; Fluorescence competitive binding assay, OBP2 (raw fluorescence reading) (SfurOBP2; ligand concentration 4 (unit not given), replicate column 1 of 3): 32085; Fluorescence competitive binding assay, OBP2 (raw fluorescence reading) (SfurOBP2; ligand concentration 4 (unit not given), replicate column 2 of 3): 39967; Fluorescence competitive binding assay, OBP2 (raw fluorescence reading) (SfurOBP2; ligand concentration 4 (unit not given), replicate column 3 of 3): 36772; Fluorescence competitive binding assay, OBP2 (raw fluorescence reading) (SfurOBP2; ligand concentration 6 (unit not given), replicate column 1 of 3): 51385; Fluorescence competitive binding assay, OBP2 (raw fluorescence reading) (SfurOBP2; ligand concentration 6 (unit not given), replicate column 2 of 3): 38065; Fluorescence competitive binding assay, OBP2 (raw fluorescence reading) (SfurOBP2; ligand concentration 6 (unit not given), replicate column 3 of 3): 41844; Fluorescence competitive binding assay, OBP2 (raw fluorescence reading) (SfurOBP2; ligand concentration 8 (unit not given), replicate column 1 of 3): 39886; Fluorescence competitive binding assay, OBP2 (raw fluorescence reading) (SfurOBP2; ligand concentration 8 (unit not given), replicate column 2 of 3): 44063; Fluorescence competitive binding assay, OBP2 (raw fluorescence reading) (SfurOBP2; ligand concentration 8 (unit not given), replicate column 3 of 3): 42977; Fluorescence competitive binding assay, OBP2 (raw fluorescence reading) (SfurOBP2; ligand concentration 10 (unit not given), replicate column 1 of 3): 53038; Fluorescence competitive binding assay, OBP2 (raw fluorescence reading) (SfurOBP2; ligand concentration 10 (unit not given), replicate column 2 of 3): 51904; Fluorescence competitive binding assay, OBP2 (raw fluorescence reading) (SfurOBP2; ligand concentration 10 (unit not given), replicate column 3 of 3): 31312; Fluorescence competitive binding assay, OBP2 (raw fluorescence reading) (SfurOBP2; ligand concentration 12 (unit not given), replicate column 1 of 3): 66556; Fluorescence competitive binding assay, OBP2 (raw fluorescence reading) (SfurOBP2; ligand concentration 12 (unit not given), replicate column 2 of 3): 51896; Fluorescence competitive binding assay, OBP2 (raw fluorescence reading) (SfurOBP2; ligand concentration 12 (unit not given), replicate column 3 of 3): 78968; Fluorescence competitive binding assay, OBP2 (raw fluorescence reading) (SfurOBP2; ligand concentration 14 (unit not given), replicate column 1 of 3): 59847; Fluorescence competitive binding assay, OBP2 (raw fluorescence reading) (SfurOBP2; ligand concentration 14 (unit not given), replicate column 2 of 3): 56230; Fluorescence competitive binding assay, OBP2 (raw fluorescence reading) (SfurOBP2; ligand concentration 14 (unit not given), replicate column 3 of 3): 65733; Fluorescence competitive binding assay, OBP2 (raw fluorescence reading) (SfurOBP2; ligand concentration 16 (unit not given), replicate column 1 of 3): 57526; Fluorescence competitive binding assay, OBP2 (raw fluorescence reading) (SfurOBP2; ligand concentration 16 (unit not given), replicate column 2 of 3): 53371; Fluorescence competitive binding assay, OBP2 (raw fluorescence reading) (SfurOBP2; ligand concentration 16 (unit not given), replicate column 3 of 3): 59678; Fluorescence competitive binding assay, OBP2 (raw fluorescence reading) (SfurOBP2; ligand concentration 18 (unit not given), replicate column 1 of 3): 69952; Fluorescence competitive binding assay, OBP2 (raw fluorescence reading) (SfurOBP2; ligand concentration 18 (unit not given), replicate column 2 of 3): 81927; Fluorescence competitive binding assay, OBP2 (raw fluorescence reading) (SfurOBP2; ligand concentration 18 (unit not given), replicate column 3 of 3): 73816; Fluorescence competitive binding assay, OBP2 (raw fluorescence reading) (SfurOBP2; ligand concentration 20 (unit not given), replicate column 1 of 3): 72726; Fluorescence competitive binding assay, OBP2 (raw fluorescence reading) (SfurOBP2; ligand concentration 20 (unit not given), replicate column 2 of 3): 69859; Fluorescence competitive binding assay, OBP2 (raw fluorescence reading) (SfurOBP2; ligand concentration 20 (unit not given), replicate column 3 of 3): 85793; Fluorescence intensity, fluorescence competitive binding assay, OBP11 (SfurOBP11; ligand concentration 2, replicate 1): 29421; Fluorescence intensity, fluorescence competitive binding assay, OBP11 (SfurOBP11; ligand concentration 2, replicate 2): 25881; Fluorescence intensity, fluorescence competitive binding assay, OBP11 (SfurOBP11; ligand concentration 2, replicate 3): 28224; Fluorescence intensity, fluorescence competitive binding assay, OBP11 (SfurOBP11; ligand concentration 4, replicate 1): 30123; Fluorescence intensity, fluorescence competitive binding assay, OBP11 (SfurOBP11; ligand concentration 4, replicate 2): 33254; Fluorescence intensity, fluorescence competitive binding assay, OBP11 (SfurOBP11; ligand concentration 4, replicate 3): 33112; Fluorescence intensity, fluorescence competitive binding assay, OBP11 (SfurOBP11; ligand concentration 6, replicate 1): 36335; Fluorescence intensity, fluorescence competitive binding assay, OBP11 (SfurOBP11; ligand concentration 6, replicate 2): 36906; Fluorescence intensity, fluorescence competitive binding assay, OBP11 (SfurOBP11; ligand concentration 6, replicate 3): 37537; Fluorescence intensity, fluorescence competitive binding assay, OBP11 (SfurOBP11; ligand concentration 8, replicate 1): 38631; Fluorescence intensity, fluorescence competitive binding assay, OBP11 (SfurOBP11; ligand concentration 8, replicate 2): 37383; Fluorescence intensity, fluorescence competitive binding assay, OBP11 (SfurOBP11; ligand concentration 8, replicate 3): 37911; Fluorescence intensity, fluorescence competitive binding assay, OBP11 (SfurOBP11; ligand concentration 10, replicate 1): 41192; Fluorescence intensity, fluorescence competitive binding assay, OBP11 (SfurOBP11; ligand concentration 10, replicate 2): 43341; Fluorescence intensity, fluorescence competitive binding assay, OBP11 (SfurOBP11; ligand concentration 10, replicate 3): 42267; Fluorescence intensity, fluorescence competitive binding assay, OBP11 (SfurOBP11; ligand concentration 12, replicate 1): 42172; Fluorescence intensity, fluorescence competitive binding assay, OBP11 (SfurOBP11; ligand concentration 12, replicate 2): 43002; Fluorescence intensity, fluorescence competitive binding assay, OBP11 (SfurOBP11; ligand concentration 12, replicate 3): 44132; Fluorescence intensity, fluorescence competitive binding assay, OBP11 (SfurOBP11; ligand concentration 14, replicate 1): 50939; Fluorescence intensity, fluorescence competitive binding assay, OBP11 (SfurOBP11; ligand concentration 14, replicate 2): 48639; Fluorescence intensity, fluorescence competitive binding assay, OBP11 (SfurOBP11; ligand concentration 14, replicate 3): 49789; Fluorescence intensity, fluorescence competitive binding assay, OBP11 (SfurOBP11; ligand concentration 16, replicate 1): 53380; Fluorescence intensity, fluorescence competitive binding assay, OBP11 (SfurOBP11; ligand concentration 16, replicate 2): 53280; Fluorescence intensity, fluorescence competitive binding assay, OBP11 (SfurOBP11; ligand concentration 16, replicate 3): 53495; Fluorescence intensity, fluorescence competitive binding assay, OBP11 (SfurOBP11; ligand concentration 18, replicate 1): 69760; Fluorescence intensity, fluorescence competitive binding assay, OBP11 (SfurOBP11; ligand concentration 18, replicate 2): 71076; Fluorescence intensity, fluorescence competitive binding assay, OBP11 (SfurOBP11; ligand concentration 18, replicate 3): 64769; Fluorescence intensity, fluorescence competitive binding assay, OBP11 (SfurOBP11; ligand concentration 20, replicate 1): 67623; Fluorescence intensity, fluorescence competitive binding assay, OBP11 (SfurOBP11; ligand concentration 20, replicate 2): 62432; Fluorescence intensity, fluorescence competitive binding assay, OBP11 (SfurOBP11; ligand concentration 20, replicate 3): 62669
